# In PubChem BioAssay (NCI):
#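 These data come from cells grown in 96-well plates and exposed to compound for 48 hours at five concentrations. GI50: concentration for 50% inhibition of growth. Definition used: TGI = concentration required for complete inhibition of growth.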
# Columns and labels:
# Assay in all cases: inhibition of tumour cell growth, NCI panel, 48 h
# NCI-H226 lung = test system: NCI-H226 lung
# SK-MEL-5 melanoma = test system: SK-MEL-5 melanoma
# MDA-MB-435 = test system: MDA-MB-435
# PC-3 prostate = test system: PC-3 prostate
# COLO 205 colon = test system: COLO 205 colon
# UACC-257 melanoma = test system: UACC-257 melanoma
# A498 renal = test system: A498 renal
# MALME-3M melanoma = test system: MALME-3M melanoma
# NCI-H460 lung = test system: NCI-H460 lung
# MOLT-4 leukemia = test system: MOLT-4 leukemia
# SK-MEL-28 melanoma = test system: SK-MEL-28 melanoma
# OVCAR-5 ovarian = test system: OVCAR-5 ovarian
# RPMI-8226 leukemia = test system: RPMI-8226 leukemia
# NCI-H23 lung = test system: NCI-H23 lung
# HCC-2998 colon = test system: HCC-2998 colon
# MDA-MB-231 breast = test system: MDA-MB-231 breast
# T-47D breast = test system: T-47D breast
# SN12C renal = test system: SN12C renal
# SK-MEL-2 melanoma = test system: SK-MEL-2 melanoma
# CAKI-1 renal = test system: CAKI-1 renal
# HCT-116 colon = test system: HCT-116 colon
# RXF 393 renal = test system: RXF 393 renal
# CCRF-CEM leukemia = test system: CCRF-CEM leukemia
# HCT-15 colon = test system: HCT-15 colon
# A549 NSCLC = test system: A549 NSCLC
# HOP-62 NSCLC = test system: HOP-62 NSCLC
# K-562 leukemia = test system: K-562 leukemia
# DU-145 prostate = test system: DU-145 prostate
# IGROV1 ovarian = test system: IGROV1 ovarian
# BT-549 breast = test system: BT-549 breast
# HOP-92 NSCLC = test system: HOP-92 NSCLC
# SW-620 colon = test system: SW-620 colon
# UO-31 renal = test system: UO-31 renal
# OVCAR-4 ovarian = test system: OVCAR-4 ovarian
# SR leukemia = test system: SR leukemia
# M14 melanoma = test system: M14 melanoma
# ACHN renal = test system: ACHN renal
# 786-0 renal = test system: 786-0 renal
# SF-295 CNS = test system: SF-295 CNS
# HL-60(TB) leukemia = test system: HL-60(TB) leukemia
# NCI/ADR-RES ovarian = test system: NCI/ADR-RES ovarian
# U251 CNS = test system: U251 CNS
# MCF7 breast = test system: MCF7 breast
# NCI-H522 lung = test system: NCI-H522 lung
# EKVX NSCLC = test system: EKVX NSCLC
# OVCAR-3 ovarian = test system: OVCAR-3 ovarian
# UACC-62 melanoma = test system: UACC-62 melanoma
# HS 578T breast = test system: HS 578T breast
# SK-OV-3 ovarian = test system: SK-OV-3 ovarian
# LOX IMVI melanoma = test system: LOX IMVI melanoma
# HT29 colon = test system: HT29 colon
# SF-539 CNS = test system: SF-539 CNS
# TK-10 renal = test system: TK-10 renal
# SF-268 CNS = test system: SF-268 CNS
# OVCAR-8 ovarian = test system: OVCAR-8 ovarian
# SNB-19 CNS = test system: SNB-19 CNS
# KM12 colon = test system: KM12 colon
# SNB-75 CNS = test system: SNB-75 CNS
smiles,measurement,setting,value
C[C@]12CCc3sc(NCCc4ccccc4)nc3C1=CC[C@@H]1[C@@H]2CC[C@]2(C)C(=O)CC[C@@H]12,GI50,NCI-H226 lung,2.42 µM
same,TGI,NCI-H226 lung,6.57 µM
same,GI50,SK-MEL-5 melanoma,4.57 µM
same,TGI,SK-MEL-5 melanoma,52.7 µM
same,GI50,MDA-MB-435,3.01 µM
same,TGI,MDA-MB-435,> 100 µM
same,GI50,PC-3 prostate,3.35 µM
same,TGI,PC-3 prostate,> 100 µM
same,GI50,COLO 205 colon,3.03 µM
same,TGI,COLO 205 colon,8.77 µM
same,GI50,UACC-257 melanoma,4.92 µM
same,TGI,UACC-257 melanoma,79.8 µM
same,GI50,A498 renal,4.43 µM
same,TGI,A498 renal,> 100 µM
same,GI50,MALME-3M melanoma,2.18 µM
same,TGI,MALME-3M melanoma,6.82 µM
same,GI50,NCI-H460 lung,4.47 µM
same,TGI,NCI-H460 lung,> 100 µM
same,GI50,MOLT-4 leukemia,2.58 µM
same,TGI,MOLT-4 leukemia,> 100 µM
same,GI50,SK-MEL-28 melanoma,3.37 µM
same,TGI,SK-MEL-28 melanoma,18.9 µM
same,GI50,OVCAR-5 ovarian,4.44 µM
same,TGI,OVCAR-5 ovarian,65.9 µM
same,GI50,RPMI-8226 leukemia,1.79 µM
same,TGI,RPMI-8226 leukemia,5.69 µM
same,GI50,NCI-H23 lung,5.03 µM
same,TGI,NCI-H23 lung,> 100 µM
same,GI50,HCC-2998 colon,8.19 µM
same,TGI,HCC-2998 colon,> 100 µM
same,GI50,MDA-MB-231 breast,3.4 µM
same,TGI,MDA-MB-231 breast,21.4 µM
same,GI50,T-47D breast,3.05 µM
same,TGI,T-47D breast,25.2 µM
same,GI50,SN12C renal,2.89 µM
same,TGI,SN12C renal,> 100 µM
same,GI50,SK-MEL-2 melanoma,17 µM
same,TGI,SK-MEL-2 melanoma,> 100 µM
same,GI50,CAKI-1 renal,3.13 µM
same,TGI,CAKI-1 renal,11.1 µM
same,GI50,HCT-116 colon,2.87 µM
same,TGI,HCT-116 colon,12.3 µM
same,GI50,RXF 393 renal,1.73 µM
same,TGI,RXF 393 renal,4.49 µM
same,GI50,CCRF-CEM leukemia,2.63 µM
same,TGI,CCRF-CEM leukemia,40.4 µM
same,GI50,HCT-15 colon,1.57 µM
same,TGI,HCT-15 colon,4.49 µM
same,GI50,A549 NSCLC,7 µM
same,TGI,A549 NSCLC,> 100 µM
same,GI50,HOP-62 NSCLC,8.52 µM
same,TGI,HOP-62 NSCLC,> 100 µM
same,GI50,K-562 leukemia,2.89 µM
same,TGI,K-562 leukemia,> 100 µM
same,GI50,DU-145 prostate,3.64 µM
same,TGI,DU-145 prostate,> 100 µM
same,GI50,IGROV1 ovarian,2.6 µM
same,TGI,IGROV1 ovarian,6.18 µM
same,GI50,BT-549 breast,2.42 µM
same,TGI,BT-549 breast,> 100 µM
same,GI50,HOP-92 NSCLC,2.75 µM
same,TGI,HOP-92 NSCLC,9.1 µM
same,GI50,SW-620 colon,2.3 µM
same,TGI,SW-620 colon,5.28 µM
same,GI50,UO-31 renal,4.03 µM
same,TGI,UO-31 renal,25.1 µM
same,GI50,OVCAR-4 ovarian,3.93 µM
same,TGI,OVCAR-4 ovarian,> 100 µM
same,GI50,SR leukemia,3.06 µM
same,TGI,SR leukemia,> 100 µM
same,GI50,M14 melanoma,3.63 µM
same,TGI,M14 melanoma,> 100 µM
same,GI50,ACHN renal,1.96 µM
same,TGI,ACHN renal,3.75 µM
same,GI50,786-0 renal,2.82 µM
same,TGI,786-0 renal,9.61 µM
same,GI50,SF-295 CNS,18.9 µM
same,TGI,SF-295 CNS,> 100 µM
same,GI50,HL-60(TB) leukemia,2.93 µM
same,TGI,HL-60(TB) leukemia,9.1 µM
same,GI50,NCI/ADR-RES ovarian,2.31 µM
same,TGI,NCI/ADR-RES ovarian,7.52 µM
same,GI50,U251 CNS,4.97 µM
same,TGI,U251 CNS,> 100 µM
same,GI50,MCF7 breast,2.68 µM
same,TGI,MCF7 breast,> 100 µM
same,GI50,NCI-H522 lung,1.78 µM
same,TGI,NCI-H522 lung,3.64 µM
same,GI50,EKVX NSCLC,90.1 µM
same,TGI,EKVX NSCLC,> 100 µM
same,GI50,OVCAR-3 ovarian,2.08 µM
same,TGI,OVCAR-3 ovarian,4.83 µM
same,GI50,UACC-62 melanoma,2.67 µM
same,TGI,UACC-62 melanoma,10.6 µM
same,GI50,HS 578T breast,2.85 µM
same,TGI,HS 578T breast,> 100 µM
same,GI50,SK-OV-3 ovarian,> 100 µM
same,TGI,SK-OV-3 ovarian,> 100 µM
same,GI50,LOX IMVI melanoma,1.7 µM
same,TGI,LOX IMVI melanoma,3.17 µM
same,GI50,HT29 colon,2.2 µM
same,TGI,HT29 colon,8.11 µM
same,GI50,SF-539 CNS,1.69 µM
same,TGI,SF-539 CNS,3.62 µM
same,GI50,TK-10 renal,4.15 µM
same,TGI,TK-10 renal,> 100 µM
same,GI50,SF-268 CNS,4.62 µM
same,TGI,SF-268 CNS,> 100 µM
same,GI50,OVCAR-8 ovarian,2.77 µM
same,TGI,OVCAR-8 ovarian,> 100 µM
same,GI50,SNB-19 CNS,97.5 µM
same,TGI,SNB-19 CNS,> 100 µM
same,GI50,KM12 colon,3.6 µM
same,TGI,KM12 colon,> 100 µM
O=C(N/C(=C/c1ccc(Cl)cc1Cl)c1nc2ccccc2s1)c1ccccc1,TGI,NCI-H226 lung,27.7 µM
same,TGI,SK-MEL-5 melanoma,26.4 µM
same,TGI,MDA-MB-435,30.2 µM
same,TGI,PC-3 prostate,38.9 µM
same,TGI,COLO 205 colon,37.2 µM
same,TGI,UACC-257 melanoma,31.6 µM
same,TGI,MALME-3M melanoma,31.1 µM
same,TGI,NCI-H460 lung,52.2 µM
same,TGI,MOLT-4 leukemia,> 100 µM
same,TGI,SK-MEL-28 melanoma,34.2 µM
same,TGI,SNB-75 CNS,34.4 µM
same,TGI,OVCAR-5 ovarian,32 µM
same,TGI,RPMI-8226 leukemia,> 100 µM
same,TGI,NCI-H23 lung,26.5 µM
same,TGI,MDA-MB-231 breast,22.3 µM
same,TGI,T-47D breast,43.3 µM
same,TGI,SN12C renal,23 µM
same,TGI,SK-MEL-2 melanoma,36.1 µM
same,TGI,CAKI-1 renal,30 µM
same,TGI,HCT-116 colon,> 100 µM
same,TGI,RXF 393 renal,54.9 µM
same,TGI,CCRF-CEM leukemia,> 100 µM
same,TGI,HCT-15 colon,13.3 µM
same,TGI,A549 NSCLC,53.8 µM
same,TGI,HOP-62 NSCLC,26.7 µM
same,TGI,K-562 leukemia,> 100 µM
same,TGI,DU-145 prostate,31.5 µM
same,TGI,IGROV1 ovarian,26.2 µM
same,TGI,BT-549 breast,64.8 µM
same,TGI,HOP-92 NSCLC,> 100 µM
same,TGI,SW-620 colon,24.6 µM
same,TGI,UO-31 renal,29.9 µM
same,TGI,OVCAR-4 ovarian,33.7 µM
same,TGI,SR leukemia,> 100 µM
same,TGI,M14 melanoma,37.6 µM
same,TGI,ACHN renal,19.5 µM
same,TGI,786-0 renal,35.4 µM
same,TGI,SF-295 CNS,26.5 µM
same,TGI,HL-60(TB) leukemia,> 100 µM
same,TGI,NCI/ADR-RES ovarian,39.5 µM
same,TGI,U251 CNS,9.05 µM
same,TGI,MCF7 breast,52.1 µM
same,TGI,NCI-H522 lung,24.7 µM
same,TGI,EKVX NSCLC,41 µM
same,TGI,OVCAR-3 ovarian,24.5 µM
same,TGI,UACC-62 melanoma,30.2 µM
same,TGI,HS 578T breast,44.3 µM
same,TGI,SK-OV-3 ovarian,79.3 µM
same,TGI,LOX IMVI melanoma,18.7 µM
same,TGI,HT29 colon,40.1 µM
same,TGI,SF-539 CNS,31.1 µM
same,TGI,TK-10 renal,42.8 µM
same,TGI,SF-268 CNS,34 µM
same,TGI,OVCAR-8 ovarian,47.4 µM
same,TGI,SNB-19 CNS,41.1 µM
same,TGI,KM12 colon,26.5 µM
